Data: publication PMC11665553, “12-Lipoxygenase inhibition delays onset of autoimmune diabetes in human gene replacement mice” (JCI Insight, 2024)
Where “and” joins values, the source holds several entries; their conditions need not be identical. Identical values can stand only once.

Assays:
C57BL/6J mice = experiment: Multiple low-dose STZ-induced diabetes in WT C57BL/6J mice (random-fed blood glucose, GTT); assay type: in vivo, mouse; set-up: Random-fed blood glucose (Fig 1E) / GTT blood glucose (Fig 1F): unit not given here; conditions: for Random-fed blood glucose (Fig 1E): 30 mg/kg i.p. + STZ; for Random-fed blood glucose (Fig 1E) / GTT blood glucose (Fig 1F): listed as ML355; for GTT blood glucose (Fig 1F): Control (C57BL/6J)
[1] = system: BMDMs from NOD.hALOX12 mice; experiment: RNA sequencing of M0 and M1-like polarized BMDMs; assay type: cell-based, mouse
Source text: BMDMs were unpolarized (M0) or polarized to an M1-like state (with lipopolysaccharide and IFN-γ) to mimic the inflammatory state that might be observed during T1D pathogenesis.
These common genes mapped to pathways related to cytokine-mediated signaling, T cell activation, and antigen processing and presentation (Supplemental Figure 3B). […] The 507 genes altered with vehicle treatment mapped to GO pathways related to the M1 polarization phenotype (myeloid cell differentiation, immune response, response to cytokines) and pathways related to oxidative stress (cell redox homeostasis, response to hydrogen peroxides) (Figure 5E). These pathways were not identified in the genes that were differentially expressed during VLX-1005 treatment.
BMDMs were isolated from 8-week-old NOD.hALOX12 mice as described previously ([2]). The isolated BMDMs were cultured for 7 days in complete medium (RPMI 1640 containing 10% FBS, 10 mM HEPES, and 100 U/mL penicillin/streptomycin) supplemented with 10 ng/mL M-CSF. […] After 1-hour pretreatment, the BMDMs were further stimulated with 10 ng/mL LPS and 25 ng/mL IFN-γ for 18 hours for M1-like polarization. RNA was isolated and used for sequencing.
RNA extraction was performed using RLT Buffer, according to the manufacturer’s instructions (Qiagen). Samples were submitted for library generation and sequencing by the University of Chicago sequencing core using a NovaSeq 6000 (Illumina). Data were analyzed using Galaxy (https://usegalaxy.org/). Reads were aligned to the Mus musculus genome build mm10 using HISAT2 (https://daehwankimlab.github.io/hisat2/). Individual sample reads were quantified using HTseq-count and normalized using DESeq2 (https://bioconductor.org/packages/release/bioc/html/DESeq2.html). DEseq2 was also used to calculate FCs and P values and to perform optional covariate correction. GO was used for pathway analysis.

[2] = Pharmacokinetics after single p.o. dose in NOD.ShiLt/J mice (plasma LC-MS/MS); assay type: in vivo, mouse; conditions: 30 mg/kg p.o., mean ± SD
Source text: The NOD mouse model is a model of T1D that recapitulates many of the immune and β cell features of the disease ([20]). […] To address this question, we introgressed humanized hALOX12 mice onto the NOD background using a speed congenics approach. […] We next measured human 12-LOX protein levels in the NOD.hALOX12 mice.

NOD.hALOX12 mice [3] = experiment: Islet cell death and proliferation staining (TUNEL, H2A.X, PCNA) in NOD.hALOX12 mice
Source text: (§2) We, therefore, immunostained pancreatic sections for markers of cell death and proliferation in the islet.
Pancreatic tissues were fixed using 4% paraformaldehyde. After fixation, the tissues were embedded in paraffin and sectioned with a thickness of 5 μm. Three sections per mouse were used for analysis, with each section being spaced 100 μm apart. Tissue sections were immunostained with anti-insulin (ProteinTech, 15848-1-AP; 1:200), anti-glucagon (Abcam, ab92517; 1:200), anti–12-LOX (Thermo Fisher Scientific, PA5-26020; 1:200), anti–12/15-LOX (Abcam, ab80221; 1:200), anti-CD3 (Abcam, ab16669; 1:200), anti-F4/80 (Sigma-Aldrich, D2S9R; 1:150), anti-MAC2 (Thermo Fisher Scientific, EbioM3/38; 1:200), and anti-H2A.X (Cell Signaling Technology, 9718s; 1:200) primary antibodies followed by conjugated anti-rabbit Ig (Vector Laboratories) secondary antibody. A DAB (3,3′-diaminobenzedine) Peroxidase Substrate Kit from Vector Laboratories was used for detection. After immunostaining, the tissue sections were counterstained with hematoxylin (Sigma-Aldrich). Images were acquired using a BZ-X810 fluorescence microscope (Keyence) and β/α cell mass was quantified by insulin^+ or glucagon^+ area and whole pancreas area.
(§3) For immunofluorescent staining, pancreatic sections were stained with the following antibodies: anti-insulin (Dako, IR002; 1:4), anti-glucagon (Santa Cruz Biotechnology, sc514592; 1:50), anti-B220 (BioLegend, 03201; 1:100), anti-CD3 (Abcam, ab16669; 1:200), anti-PCNA (Santa Cruz Biotechnology, sc-7907; 1:100), anti–4-HNE (Abcam, ab46545; 1:200), and anti-GPx1 (Santa Cruz Biotechnology, sc-22145; 1:100). Highly cross-adsorbed Alexa Fluor secondary antibodies (Thermo Fisher Scientific) were used at a dilution of 1:500. Tissue sections were stained with DAPI (Thermo Fisher Scientific) to label cell nuclei. The Nikon A1 confocal microscopy was used to capture images. CellProfiler v4.1 software (https://cellprofiler.org/) was used for image analysis.
A TUNEL assay was used to determine β cell death in pancreatic islets. The assay was performed according to the protocol provided by the manufacturer (Abcam) and HRP-DAB chemistry was used for detection. Two sections, spaced 100 μm apart, were used for each mouse. Images were captured using a BZ-X810 fluorescence microscope system (Keyence). The number of TUNEL^+ cells was assessed manually per islet.

NOD.hALOX12 mice [4] = experiment: Insulitis scoring and pancreas immunostaining (CD3, B220, F4/80, MAC2) in NOD.hALOX12 mice; assay type: in vivo, mouse
12-LOX products = experiment: Serum lipidomics (LC-MS/MS) of 12-LOX and non-12-LOX products in NOD.hALOX12 mice; assay type: in vivo, mouse
Protocol: Lipidomics analysis (by LC-MS/MS) was performed for a series of 12-LOX products resulting from different fatty acid substrates (Figure 2A).

NOD.hALOX12 mice [5] = experiment: Oxidative stress immunostaining (4-HNE, GPx1) in NOD.hALOX12 mice; assay type: in vivo, mouse
Source text: as §2, §3

NOD.hALOX12 mice [6] = experiment: Diabetes incidence (prevention) in NOD.hALOX12 mice; assay type: in vivo, mouse; conditions: 30 mg/kg p.o. daily, 6–10 weeks of age
Protocol: (§1) Mice were followed for diabetes development (blood glucose ≥250 mg/dL on 2 consecutive days) until 25 weeks of age (Figure 3A).
Diabetes incidence was determined by observing 2 consecutive blood glucose values greater than 250 mg/dL.

NOD.hALOX12 mice [7] = experiment: NanoString spatial proteomics of insulitic and insulin-positive areas in NOD.hALOX12 mice; assay type: in vivo, mouse; conditions: Insulitic Area; Fig 2F source data, individual values
NOD.hALOX12 mice [8] = experiment: Diabetes treatment (reversal) in diabetic female NOD.hALOX12 mice; assay type: in vivo, mouse; conditions: 30 mg/kg/day p.o. up to 6 weeks
Protocol: as §1
For diabetes treatment studies, female NOD.hALOX12 mice were followed for random-fed blood glucose from 12 to 20 weeks of age.

[9] = sheet Fig 5G, 4 replicates, listed as VLX
[10] = female NOD.hALOX12 mice, 4 weeks of treatment
[11] = sheet Fig 4D, individual mice, listed as VLX
[12] = female NOD.hALOX12 mice, 30 mg/kg p.o., 4 weeks
[13] = sheet Fig 2G, pancreas immunostaining, individual animals, listed as VLX
[14] = female NOD.hALOX12 mice, 30 mg/kg p.o., 1 week
[15] = serum, individual animals, listed as VLX
[16] = sheet Fig 4E, individual mice, listed as VLX

SMILES: COc1cccc(CNc2ccc(S(=O)(=O)Nc3nc4ccccc4s3)cc2)c1O [VLX-1005]
- Random-fed blood glucose (Fig 1E) (C57BL/6J mice; C57BL/6J, day 0, individual mice): 180 and 167 and 192 and 187
- Random-fed blood glucose (Fig 1E) (C57BL/6J mice; C57BL/6J, day 5, individual mice): 172 and 214 and 232 and 221
- Random-fed blood glucose (Fig 1E) (C57BL/6J mice; C57BL/6J, day 10, individual mice): 253 and 280 and 275 and 278
- Random-fed blood glucose (Fig 1E) (C57BL/6J mice; C57BL/6J, day 15, individual mice): 347 and 298 and 284 and 335
- Random-fed blood glucose (Fig 1E) (C57BL/6J mice; C57BL/6J, day 22, individual mice): 347 and 428 and 437 and 367
- Random-fed blood glucose (Fig 1E) (C57BL/6J mice; C57BL/6J, day 27, individual mice): 487 and 478 and 512 and 486
- Random-fed blood glucose (Fig 1E) (C57BL/6J mice; C57BL/6J, day -5, individual mice): 190 and 213 and 199 and 201
- GTT AUC (Fig 1G) (C57BL/6J mice; C57BL/6J, 30 mg/kg i.p., day 4 after STZ, individual mice): 44930 and 36610 and 49530 and 43880
- GTT blood glucose (Fig 1F) (C57BL/6J mice; 30 mg/kg i.p., day 4 after STZ, 0 min after glucose, individual mice): 164 and 184 and 175 and 154
- GTT blood glucose (Fig 1F) (C57BL/6J mice; 30 mg/kg i.p., day 4 after STZ, 10 min after glucose, individual mice): 268 and 395 and 398 and 425
- GTT blood glucose (Fig 1F) (C57BL/6J mice; 30 mg/kg i.p., day 4 after STZ, 20 min after glucose, individual mice): 532 and 602 (2×) and 658
- GTT blood glucose (Fig 1F) (C57BL/6J mice; 30 mg/kg i.p., day 4 after STZ, 30 min after glucose, individual mice): 682 and 563 and 602 and 586
- GTT blood glucose (Fig 1F) (C57BL/6J mice; 30 mg/kg i.p., day 4 after STZ, 60 min after glucose, individual mice): 547 and 425 and 594 and 493
- GTT blood glucose (Fig 1F) (C57BL/6J mice; 30 mg/kg i.p., day 4 after STZ, 90 min after glucose, individual mice): 459 and 369 and 530 and 452
- GTT blood glucose (Fig 1F) (C57BL/6J mice; 30 mg/kg i.p., day 4 after STZ, 120 min after glucose, individual mice): 366 and 256 and 369 and 398
- Glycemic outcome after STZ (C57BL/6J mice; male WT C57BL/6J mice, 30 mg/kg i.p. daily peri-STZ): became overtly hyperglycemic
- Magnitude of changes of IFN pathway genes vs vehicle in M1-like BMDMs ([1]; 10 μM, P < 0.05 by t test): augmented significantly
- Adar expression (heat map value) [1, 9]: 1.762 and 1.682 and 1.654 and 1.2
- Arrdc4 expression (heat map value) [1, 9]: 1.769 and 1.684 and 1.6721 and 1.333
- Ddx3x expression (heat map value) [1, 9]: 0.9319 and 0.8926 and 0.8886 and 0.8518
- Dhx58 expression (heat map value) [1, 9]: 2.321 and 1.936 and 1.912 and 1.006
- Gigyf2 expression (heat map value) [1, 9]: 0.9359 and 0.7566 and 0.751 and 0.4484
- Kat5 expression (heat map value) [1, 9]: 0.9038 and 0.7157 and 0.4242 (2×)
- Lrrfip2 expression (heat map value) [1, 9]: 1.898 and 1.808 and 1.658 and 1.413
- Mark4 expression (heat map value) [1, 9]: 1.966 and 1.936 and 1.657 and 1.006
- Mmp12 expression (heat map value) [1, 9]: 0.8105 and 0.4921 (3×)
- Ninj1 expression (heat map value) [1, 9]: 1.769 and 1.701 and 1.685 and 1.401
- Nlrp3 expression (heat map value) [1, 9]: 2.077 and 1.964 and 1.718 and 1.337
- Nono expression (heat map value) [1, 9]: 1.2 and 1.151 and 1.126 and 1.119
- Oas1e expression (heat map value) [1, 9]: 2.321 and 1.949 and 1.675 and 1.657
- Pou2f2 expression (heat map value) [1, 9]: 1.6038 and 1.537 and 1.347 and 1.324
- Riok3 expression (heat map value) [1, 9]: 1.411 and 1.279 and 1.172 and 1.109
- Srebf1 expression (heat map value) [1, 9]: 0.9499 and 0.826 and 0.6628 and 0.3958
- Tank expression (heat map value) [1, 9]: 2.305 and 1.708 and 1.675 and 0.8815
- Tlr6 expression (heat map value) [1, 9]: 2.235 and 2.002 and 1.489 and 1.453
- Tmem126a expression (heat map value) [1, 9]: 0.7845 and 0.7743 and 0.7659 and 0.465
- Tomm70a expression (heat map value) [1, 9]: 1.572 and 1.428 and 1.219 and 1.127
- Ttll12 expression (heat map value) [1, 9]: 2.1636 and 1.773 and 1.7 and 1.671
- Ube2k expression (heat map value) [1, 9]: 1.475 and 1.413 and 1.263 and 1.205
- AUClast/D ([2]; dose-normalized): 440 ± 54 ng·h/mL
- AUC%extrap_obs [2]: 0.115 ± 0.099%
- AUC(0-inf) ([2]; mouse, plasma, po): 13200 ng·h/mL
- AUC(0-t) ([2]; mouse, plasma, po): 13200 ng·h/mL
- Cmax ([2]; mouse, plasma, po): 14300 ng/mL
- half-life ([2]; mouse, plasma, po): 2.53 ± 0.41 h
- MRT inf ([2]; mouse, plasma, po, read-out: MRTinf_obs): 3.81 ± 0.71 h
- Islet cell death (TUNEL, H2A.X staining) vs vehicle (NOD.hALOX12 mice [3]; [10]): decreased islet cell death
- β cell proliferation (PCNA immunostaining) vs vehicle (NOD.hALOX12 mice [3]; [10]): decreased β cell proliferation
- H2Ax (NOD.hALOX12 mice [3]; [11]): 0.25 and 0.166 and 0 and 0.14
- PCNA (NOD.hALOX12 mice [3]; [11]): 1.4 and 1.2 and 0.9 and 1.83
- T and B cell infiltration (pancreas pathology) (NOD.hALOX12 mice [4]; [12]): reduced T and B cell infiltration
- T cells (CD3+), macrophages (F4/80+), activated macrophages (Mac2+) by immunohistochemistry (NOD.hALOX12 mice [4]; [12]): reductions
- Extent of insulitis (insulitis scoring) vs vehicle (NOD.hALOX12 mice [4]; female NOD.hALOX12 mice, 30 mg/kg p.o., 4 weeks (6–10 weeks of age)): significantly reduced
- Insulitis score (Fig 2E) (NOD.hALOX12 mice [4]; individual animals, listed as VLX): 1.633 and 1.787 and 1.784 and 1.529 and 1.472
- CD3 (NOD.hALOX12 mice [4]; [13]): 1.368e-5 and 2.024e-5 and 0.0002739 and 0 and 2.686e-5
- F4/80 (NOD.hALOX12 mice [4]; [13]): 0.00043 and 0.0003528 and 0.0003661 and 0.0004659 and 0.0002593
- F4/80 (second Veh/VLX pair) (NOD.hALOX12 mice [4]; [13]): 0.000451 and 0.000344 and 0.000488 and 0.0002845
- Serum 12-HEPE level vs vehicle (12-LOX products; [14]): not significantly changed
- Serum 12-HETE level vs vehicle (12-LOX products; [14]): significantly reduced
- Serum 13-HODE level vs vehicle (12-LOX products; [14]): significantly reduced
- Serum 14-HDHA level vs vehicle (12-LOX products; [14]): significantly reduced
- Serum 17-HDHA level vs vehicle (12-LOX products; [14]): significantly reduced
- 12-HEPE (Fig 2B) (12-LOX products; [15]): 14.181 and 5.614 and 0.079 and 3.392 and 10.786
- 12-HETE (Fig 2B) (12-LOX products; [15]): 1108.62 and 574.602 and 13.903 and 321.764 and 853.064
- 13(S)-HODE (Fig 2B) (12-LOX products; [15]): 213.641 and 75.17 and 53.113 and 81.494 and 90.355
- 14-HDHA (Fig 2B) (12-LOX products; [15]): 76.057 and 30.285 and 4.719 and 24.172 and 46.818
- 15-HETE (Fig 2B) (12-LOX products; [15]): 21.905 and 9.387 and 6.557 and 15.336 and 15.324
- 17-HDHA (Fig 2B) (12-LOX products; [15]): 7.358 and 2.244 and 2.092 and 3.507 and 3.423
- 4-HNE immunostaining (oxidative stress marker) vs placebo (NOD.hALOX12 mice [5]; [10]): reduced immunostaining
- GPx1 levels in β cells (NOD.hALOX12 mice [5]; [10]): increase
- 4-hne (NOD.hALOX12 mice [5]; [16]): 300.045 and 304.934 and 308.173 and 287.237 and 299.135
- GPx1 (NOD.hALOX12 mice [5]; [16]): 416.4 and 443.77 and 439.26 and 458.35
- Mice protected from diabetes development at 25 weeks of age (NOD.hALOX12 mice [6]; female NOD.hALOX12 mice): 60%
- Mice protected from diabetes development at 25 weeks of age (NOD.hALOX12 mice [6]; male NOD.hALOX12 mice): 75%
- CD19 (NOD.hALOX12 mice [7]): 0.1873 and -0.4029 and 0.4865 and 2.831 and -0.3159 and 0.2718 and 0.8536 and 0.6292 and 1.249 and 2.864
- Blood glucose levels vs vehicle in established diabetes (NOD.hALOX12 mice [8]): relative reductions in blood glucose levels
- Reversal of established diabetes (NOD.hALOX12 mice [8]): did not observe a reversal in diabetes
